Read-outs that look alike come from different tables or passages of the source.
Experiments:
[1] = test system: P. falciparum 3D7 parasites; assay: P. falciparum growth inhibition assay, 2-cycle (120 h treatment), delayed-death screen and dose-response; type: cell-based, Plasmodium falciparum; conditions: for 3) Fold change (72 h/120 h) / 2) Growth (%) at 120 h: P. falciparum, 2 μg/mL; for 3) Fold change (72 h/120 h): growth at 72 h / growth at 120 h; for activity at 2 µg/mL: Plasmodium falciparum, 3D7; P. falciparum, 2 μg/mL, 120 h; read-out: 2) Growth (%) at 120 h
[2] = test system: P. falciparum 3D7 parasites; assay: P. falciparum growth inhibition assay, 1-cycle (72 h treatment), SYBR DNA staining (library screen at 2 μg/mL and dose-response); type: cell-based, Plasmodium falciparum; conditions: for activity at 2 µg/mL: Plasmodium falciparum, 3D7; P. falciparum, 2 μg/mL, 72 h; read-out: 1) Growth (%) at 72 h
[3] = test system: T. gondii RH strain (RH-Tub-eYFP) tachyzoites; assay: microbe, parasite or virus in culture; type: cell-based, Toxoplasma gondii; conditions: 72 h; for Mean / Replicate 1 / Replicate 2: T. gondii, 2 μg/mL; for Mean: mean of both replicates, growth (% of control); for Replicate 1 / Replicate 2: values are growth (% of control); for percent parasite growth at 2 µg/mL: Toxoplasma gondii, library screen at 2 μg/mL, % growth
[4] = P. falciparum, 72 h, 2 μg/mL, mean of both replicates, growth (% of control)
[5] = 3D7, 72 h treatment, mean ± S.D., n ≥ 3, read-out: IC50 (μM), P. falciparum
[6] = Plasmodium falciparum, 3D7, 72 h treatment, mean ± S.D., n ≥ 3, read-out: IC50 (μM), P. falciparum
[7] = 72 h treatment, read-out: IC50, P. falciparum

Molecule: CN(C)[C@@H]1C(O)=C(C(N)=O)C(=O)[C@@]2(O)C(O)=C3C(=O)c4c(O)cccc4[C@@](C)(O)[C@H]3[C@H](O)[C@@H]12 [Oxytetracycline, reference compound]
- 3) Fold change (72 h/120 h) [1]: 3.1
- activity at 2 µg/mL [1]: 15.2%
- activity at 2 µg/mL [2]: 47.4%

Molecule: Cc1cc(=O)n2c3c(c4c(cc13)c(CO)cc(=O)n4C)OC2 [Nybomycin]
- 2) Growth (%) at 120 h [1]: 16.54%
- 3) Fold change (72 h/120 h) [1]: 1.9
- 1) Growth (%) at 72 h ([2]; P. falciparum, 2 μg/mL, 72 h): 31.94%
- Mean [2, 4]: 31.94

Molecule: CC1=C[C@H]2C(=O)O[C@H]3C[C@@H](C/C=C(\C)C[C@@H](C)/C=C/C=C4\CO[C@H]([C@@H]1O)[C@@]42O)O[C@@]1(CC[C@H](C)[C@@H](C)O1)C3 [Milbemycin A3]
- 2) Growth (%) at 120 h [1]: 17.63%
- 3) Fold change (72 h/120 h) [1]: 1.4
- 1) Growth (%) at 72 h ([2]; P. falciparum, 2 μg/mL, 72 h): 24.47%
- Mean [2, 4]: 24.47

Molecule: CC[C@H](C)[C@H]1O[C@]2(CC[C@@H]1C)C[C@@H]1C[C@@H](C/C=C(\C)[C@@H](O[C@H]3C[C@H](OC)[C@@H](O)[C@H](C)O3)[C@@H](C)/C=C/C=C3\CO[C@@H]4[C@H](O)C(C)=C[C@@H](C(=O)O1)[C@]34O)O2 [Ivermectin B1a monosaccharide]
- Mean [2]: 49.58

Molecule: Milbemycin oxime [reference compound]
- 2) Growth (%) at 120 h [1]: 3.08%
- 3) Fold change (72 h/120 h) [1]: 7.7
- 1) Growth (%) at 72 h ([2]; P. falciparum, 2 μg/mL, 72 h): 23.75%

Molecule: Methylcanidine
- 2) Growth (%) at 120 h [1]: 11.61%
- 3) Fold change (72 h/120 h) [1]: 1.8
- 1) Growth (%) at 72 h ([2]; P. falciparum, 2 μg/mL, 72 h): 21.12%
- Mean [2, 4]: 21.12

Molecule: CN[C@@H]1C[C@H]2O[C@@](C)([C@@H]1OC)n1c3ccccc3c3c4c(c5c6ccccc6n2c5c31)C(=O)NC4=O [Oxostaurosporine, 7-]
- Mean [3]: 37.90
- Replicate 1 [3]: 57.26
- Replicate 2 [3]: 18.54

Molecule: O=C(O)c1cccc(C(=O)O)n1 [Dipicolinic acid]
- percent parasite growth at 2 µg/mL ([3]; replicate 1, read-out: Tg_72h_%Growth_Rep1): 112%
- percent parasite growth at 2 µg/mL ([3]; replicate 2, read-out: Tg_72h_%Growth_Rep2): 89.5%

Molecule: CCCCCC(=O)O[C@H]1[C@H](C)O[C@@H](O[C@H]2[C@H](N(C)C)[C@@H](O)[C@H](O[C@H]3[C@@H](CC=O)C[C@@H](C)[C@@H](O)/C=C/C=C/C[C@@H](C)OC(=O)C[C@@H](O)[C@@H]3OC)O[C@@H]2C)C[C@@]1(C)O [Leucomycin A13]
- 2) Growth (%) at 120 h [1]: 9.02%
- 3) Fold change (72 h/120 h) [1]: 3.7
- 1) Growth (%) at 72 h ([2]; P. falciparum, 2 μg/mL, 72 h): 33.20%

Molecule: CCO[C@@H]1[C@@H](OC)[C@H](C)O[C@@H](O[C@H]2C[C@H]3[C@@H]4C=C5C(=O)[C@H](C)[C@@H](O[C@H]6CC[C@H](N(C)C)[C@@H](C)O6)CCC[C@H](CC)OC(=O)C[C@H]5[C@@H]4C=C(C)[C@@H]3C2)[C@@H]1OC [3-Ethoxyspinosyn L]
- IC50 [2, 5]: 0.57 ± 0.28 µM

Molecule: CCC[C@@H]1C[C@@H](C(=O)N[C@@H]([C@H]2O[C@H](SC)[C@H](O)[C@@H](O)[C@H]2O)[C@@H](C)O)N(C)C1 [Lincomycin, reference compound]
- 3) Fold change (72 h/120 h) [1]: 3.8
- activity at 2 µg/mL [1]: 14.1%
- activity at 2 µg/mL [2]: 54.4%

Molecule: Bischloroanthra-benzoxocinone
- Mean [2, 4]: 31.15

Molecule: CC(C)=CCC[C@H](C)[C@H]1CC[C@]2(C)C[C@H]3[C@H](C(=O)C[C@@]3(C)O)/C(C=O)=C\C[C@@H]12 [Ophiobolin C]
- Mean [3]: 48.72
- Replicate 1 [3]: 7.63
- Replicate 2 [3]: 89.80

Molecule: CCCC(=O)O[C@H]1[C@H](C)O[C@@H](O[C@H]2[C@H](N(C)C)[C@@H](O)[C@H](O[C@H]3[C@@H](CC=O)C[C@@H](C)[C@@H](O)/C=C/C=C/C[C@@H](C)OC(=O)C[C@@H](O)[C@@H]3OC)O[C@@H]2C)C[C@@]1(C)O [Leucomycin A5]
- 2) Growth (%) at 120 h [1]: 12.18%
- 3) Fold change (72 h/120 h) [1]: 5.4
- 1) Growth (%) at 72 h ([2]; P. falciparum, 2 μg/mL, 72 h): 66.05%

Molecule: 4-O-methylammocidin
- 2) Growth (%) at 120 h [1]: 13.10%
- 3) Fold change (72 h/120 h) [1]: 3.3
- 1) Growth (%) at 72 h ([2]; P. falciparum, 2 μg/mL, 72 h): 43.16%

Molecule: CC[C@H]1O[C@]2(CC[C@@H]1C)C[C@@H]1C[C@@H](C/C=C(\C)C[C@@H](C)/C=C/C=C3\CO[C@@H]4C(=NO)C(C)=C[C@@H](C(=O)O1)[C@]34O)O2 [Milbemycin A4 oxime]
- 2) Growth (%) at 120 h [1]: 12.31%
- 3) Fold change (72 h/120 h) [1]: 1.8
- 1) Growth (%) at 72 h ([2]; P. falciparum, 2 μg/mL, 72 h): 22.48%
- Mean [2, 4]: 22.48

Molecule: Ikarugamycin
- Mean [2, 4]: 48.31

Molecule: CC[C@H]1/C=C/C=C/C[C@@H](C)[C@H](O)[C@@](C)(O)C(=O)[C@@H](C)[C@H](O)[C@@H](C)C(=O)[C@@H](C)[C@H](O)[C@@H](C)/C=C/C(=O)O[C@H]2C[C@@]3(CC[C@H](C)[C@H](C[C@@H](C)O)O3)O[C@@H](CC1)[C@H]2C [Oligomycin D]
- 2) Growth (%) at 120 h [1]: 14.87%
- 3) Fold change (72 h/120 h) [1]: 1.5
- 1) Growth (%) at 72 h ([2]; P. falciparum, 2 μg/mL, 72 h): 21.67%
- Mean [2, 4]: 21.67

Molecule: CO[C@@H]1[C@@H](O[C@@H]2O[C@H](C)[C@@H](O[C@H]3C[C@@](C)(O)[C@@H](OC(=O)CC(C)C)[C@H](C)O3)[C@H](N(C)C)[C@H]2O)[C@@H](CC=O)C[C@@H](C)[C@@H](O)/C=C/C=C/C[C@@H](C)OC(=O)C[C@H]1O [Leucomycin A1]
- 2) Growth (%) at 120 h [1]: 11.56%
- 3) Fold change (72 h/120 h) [1]: 5.1
- 1) Growth (%) at 72 h ([2]; P. falciparum, 2 μg/mL, 72 h): 58.63%

Molecule: COC(=O)C1=CO[C@@H](C)[C@@H]2CN3CCc4c([nH]c5cc(OC)c(OC)cc45)[C@@H]3C[C@H]12 [Isoreserpiline]
- 2) Growth (%) at 120 h [1]: 4.30%
- 3) Fold change (72 h/120 h) [1]: 5.7
- 1) Growth (%) at 72 h ([2]; P. falciparum, 2 μg/mL, 72 h): 24.60%

Molecule: CN1CC[C@]2(c3cccc4c3N[C@H]3N(C)CC[C@@]43[C@]34CCN(C)[C@H]3Nc3ccccc34)c3ccccc3N[C@H]12 [Hodgkinsine B]
- Mean [3]: 34.28
- Replicate 1 [3]: 8.86
- Replicate 2 [3]: 59.70

Molecule: CCCC[C@H](C)[C@@H]1CC(=O)N[C@@H](Cc2ccccc2)C(=O)N[C@@H](C)C(=O)N[C@H]([C@@H](C)CC)C(=O)O1 [Beauveriolide III]
- IC50 [2, 6]: > 1 µM

Molecule: Oc1cc(O)cc(O)c1 [Phloroglucinol]
- 3) Fold change (72 h/120 h) [1]: 3.9
- activity at 2 µg/mL [1]: 13.2%
- activity at 2 µg/mL [2]: 51.2%

Molecule: C/C=C(/NC(=O)c1csc(-c2csc(-c3ccc4c(n3)-c3csc(n3)C(C(C)OC)NC(=O)c3csc(n3)C(C(C)(C)O)NC(=O)c3csc(n3)/C(=C\C)NC(=O)C(C(C)O)NC(=O)c3csc-4n3)n2)n1)C(=O)NCC(C)O (stereo not shown) [Thiocillin II]
- IC50 [2, 5]: 0.161 ± 0.038 µM
- IC50 [2, 7]: < 0.2 µM

Molecule: CCO[C@@H]1[C@@H](OC)[C@H](C)O[C@@H](O[C@H]2C[C@H]3[C@@H]4C=C5C(=O)[C@H](C)[C@@H](O)CCC[C@H](CC)OC(=O)C[C@H]5[C@@H]4C=C(C)[C@@H]3C2)[C@@H]1OC [3-Ethoxyspinosyn L pseudoaglycone]
- IC50 [2, 5]: > 1 µM

Molecule: CN=C1NC(=O)[C@H]([C@H](C)c2c[nH]c3ccccc23)O1 [Indolmycin]
- 2) Growth (%) at 120 h [1]: 17.39%
- 3) Fold change (72 h/120 h) [1]: 2.6
- 1) Growth (%) at 72 h ([2]; P. falciparum, 2 μg/mL, 72 h): 44.88%

Molecule: COC(=O)c1ccc(CCCCCCCCCCc2ccc(C(=O)OC)nc2)cn1 [Penicolinate A]
- Mean [3]: 44.53
- Replicate 1 [3]: 16.04
- Replicate 2 [3]: 73.01

Molecule: CC(=O)O[C@H]1C[C@@]2(C)[C@@H](CC[C@H]3[C@@]4(C)C=CC(=O)[C@@H](C)[C@@H]4[C@H](OC(C)=O)C(=O)[C@@]32C)/C1=C(\CCC=C(C)C)C(=O)O [Helvolic acid]
- 3) Fold change (72 h/120 h) [1]: 7.0
- activity at 2 µg/mL [1]: 8.14%
- activity at 2 µg/mL [2]: 56.7%

Molecule: CC1=C[C@H]2[C@H](O)[C@H](O)CC[C@H]2[C@@](C)(C(O)=C2C(=O)CNC2=O)[C@@H]1CCC(C)C(O)/C(C)=C/CC(O)/C=C/C(C)C(O)/C=C/CC(O)/C(C)=C/CC(O)CC1CCCN1C(=N)N (stereo partly shown) [Lydicamycin]
- Mean [2, 4]: 36.70

Molecule: Thiocillin III
- IC50 [2, 5]: 0.11 ± 0.006 µM
- IC50 [2, 7]: < 0.2 µM

Molecule: CC[C@H](C)[C@H]1OC(=O)[C@H](Cc2ccccc2)N(C)C(=O)[C@@H](C(C)C)OC(=O)[C@H](Cc2ccccc2)N(C)C(=O)[C@@H](C(C)C)OC(=O)[C@H](Cc2ccccc2)N(C)C1=O [Beauvericin A]
- IC50 ([2]; Plasmodium falciparum, 3D7, 72 h treatment, read-out: IC50, P. falciparum): 0.33 µM
- IC50 [2, 6]: 0.326 ± 0.095 µM

Molecule: CC1=C[C@H]2C(=O)O[C@H]3C[C@@H](C/C=C(\C)C[C@@H](C)/C=C/C=C4\CO[C@H]([C@@H]1O)[C@@]42O)O[C@]1(C3)C[C@H](O)[C@H](C)[C@@H](/C(C)=C/C(C)C)O1 [Nemadectin]
- 2) Growth (%) at 120 h [1]: 11.78%
- 3) Fold change (72 h/120 h) [1]: 1.9
- 1) Growth (%) at 72 h ([2]; P. falciparum, 2 μg/mL, 72 h): 21.98%
- Mean [2, 4]: 21.98

Molecule: CCO[C@@H]1[C@@H](OC)[C@H](C)O[C@@H](O[C@@H]2C[C@H]3CC[C@@H]4[C@@H](C=C5C(=O)[C@H](C)[C@@H](O)CCC[C@H](CC)OC(=O)C[C@H]54)[C@@H]3C2)[C@@H]1OC [3-Ethoxy-5,6-dihydrospinosyn J pseudoaglycone]
- IC50 [2, 5]: > 1 µM
- Screen (P. falciparum) ([2]; library screen at 2 μg/mL, 3D7, 72 h, DD from the 120 h timepoint): I

Molecule: CC[C@H]1CCC[C@H](O)[C@@H](C)C(=O)C2=C[C@@H]3[C@@H](C=C(C)[C@@H]4C[C@@H](O[C@@H]5O[C@@H](C)[C@H](OC)[C@@H](OC)[C@H]5OC)C[C@@H]34)[C@@H]2CC(=O)O1 [Spinosyn D pseudoaglycone]
- IC50 [2, 5]: > 1 µM

Molecule: CCO[C@@H]1[C@@H](OC)[C@H](C)O[C@@H](O[C@@H]2C[C@H]3CC[C@@H]4[C@@H](C=C5C(=O)[C@H](C)[C@@H](O[C@H]6CC[C@H](N(C)C)[C@@H](C)O6)CCC[C@H](CC)OC(=O)C[C@H]54)[C@@H]3C2)[C@@H]1OC [3-Ethoxy-5,6-dihydrospinosyn J]
- IC50 [2, 5]: 0.42 ± 0.22 µM
